“Also recorded” adds a separate entry of the source. *1 amine or outer side, *2 acyl side, *3 side chain or, on linkers, in order; H or OH if unused. Where a SMILES comes first, the peptide text is derived from it. [ ]: non-standard residue; d: D form. X1 = O=C(Cc1cccc(/N=N/c2cccc(CN[*:1])c2)c1)[*:2]

For data set [1], the target named is T1, PD-1/PD-L1 interaction (Homo sapiens, UniProt Q9NZQ7).
T1 construct: purchased Cisbio
Nature of the data set: PD-1/PD-L1 HTRF binding assay (Cisbio). The following applies: for IC50: HTRF, 1 h at room temperature, three parameter logistic fit, brackets = 95% confidence interval, read-out: IC50, inhibition of PD-1/PD-L1 (HTRF); for IC50 / Alanine scan of CLP003, inhibition of PD-1/PD-L1 (HTRF) at single concentration: triplicate; for Alanine scan of CLP003, inhibition of PD-1/PD-L1 (HTRF) at single concentration: peptides screened at 1 mM in europium detection buffer, representative of n = 3. The method, then:
All peptides were screened at 1 mM in europium detection buffer, BMS-1 (10 μM) was the control, the positive control contained tagged PD-L1 and tagged PD-1, the negative control contained tagged PD-L1 only. Errors are SEM, performed in triplicate. Representative example of n = 3. (B) Example azobenzene modified peptide, peptide 1, predicted to be unstructured in the trans isomer and a turn motif in the cis isomer. Structures predicted with RFAllAtom and Maestro. The arrows between residues in the cis conformation implies the N to C direction. (C) The analytical HPLC traces (254 nm) showing pre-irradiated (red), irradiated at 365 nm for 20 min (blue) and a co-injection of the two samples (green). (D) UV-Vis spectra of 1. […] Post irradiation, and after up to 6 hours in the dark characteristic maxima for the cis isomer at 450 nm is observed. (E) Absorbance at 330 nm over 10 cycles of photoisomerization of peptide 1 after 20 min irradiation at 365 nm, and then isomerisation for 20 min exposed to white light. […]
6. PD-1/PD-L1 HTRF binding assay
This assay was purchased from CisBio and was performed following the manufacturer’s protocol. Tag1-PD-L1 and Tag2-PD-1 was diluted 40-fold from the stock solution with PPI-Europium detection buffer. Anti-Tag1 Eu Cryptate reagent and Anti-Tag2 XL665 antibody was diluted 50-fold from the stock solution with PPI-Europium detection buffer. HTRF 96-well low volume white plate was used. The samples were made to the desired concentration and 2 µL was pipetted into the well. The 4 µL of Tag-1-PD-L1 solution (25 nM) was added, followed by 4 µL of Tag2-PD-1 solution (250 nM). 1X Anti-Tag1 Eu Cryptate reagent solution (25 nM|) and 1X Anti-Tag2 XL665 antibody solution (250 nM) were pre-mixed prior to dispensing 10 µL into the well, for a total volume of 20 µL. The plate was sealed and incubated for 1 hour at room temperature. Samples were analysed in triplicate. Once incubated, the plate was read using a CLARIOstar (BMG Labtech) microplate reader following manufacturer’s protocols for time resolved fluorescence (excitation filter EX-TR, emission filters 620 (10) nm, 665 (10) nm, dichoric mirror LP-TR, integration delay (lag time) 60 µs, integration time 400 µs, number of flashes 200, gain for white plate 2500).
The emission ratio was calculated for each well was calculated with the following equation:
Ratio = 665 nm Intensity […]
The “specific signal” (ΔR) is obtained by subtracting the background from the signal of each […]
∆R = RatioSample ‒ Ratiobackground […]
interaction. The data was fit to a three parameter logistic regression model with resulting R2 […]
On the day of analysis Raji-APC-nPD-L1 cell suspension ~100,000
(90 µL) was added to a 96 well plate containing test sample (1.8 µL), followed by Jurkat-Lucia TCR-hPD-1 cell suspension of ~200,000 (90 µL). The plate was incubated at 37 °C in a CO2 incubator for 6 hours. The co-cultured supernatant was transferred to 96-well clear bottomed […]
white plate. […]

The target of data set [2] is PD-L1. The following applies: cited from earlier work. From the text: To determine where to insert AMPP, alanine scanning mutagenesis highlighted which amino acids were essential for inhibition using a homogenous time-resolved fluorescence (HTRF) binding assay (Cisbio).[38] From this Tyr5 and Trp7 were highlighted as being […] for inhibition (Fig. 2A). […] Photo-switchable peptides that have the potential to be switched “on” and “off” through structural changes, present an opportunity for externally controlled immune checkpoint inhibitors.

In data set [3] the test system is PD-1/PD-L1 interaction between Jurkat-Lucia TCR-hPD-1 and Raji-APC PD-L1 cells. Nature of the data set: PD-1/PD-L1 immune checkpoint blockade cell-based assay (InvivoGen), luciferase read-out. The following applies: Jurkat/Raji co-culture, 6 h at 37 °C, luminescence; 1 tested as cis isomer (irradiated at 365 nm); triplicate; brackets = 95% CI. Details: species or system human. The method, then:
Fig. 3 (A) HTRF assay with PD-1/PD-L1 and peptides CLP003, cis1 And trans1. (B) PD-1/PD-L1 immune checkpoint blockade assay (Invivogen). Increased luminescence implies PD-1/PD-L1 inhibition between modified Jurkat and Raji cells. Errors are SEM, performed in triplicate. Representative examples of n = 3.
There was concern that during the cellular assay incubation at 37 °C may result in the azobenzene modified peptide relaxing back to the trans isomer. To determine whether 1 was thermally stable to continue with cellular assays, 1 was incubated at 37 °C for 8 h after irradiation at 365 nm for 15 minutes in buffer. […] To explore the activity of 1 in a cellular context, an immune checkpoint blockade assay was performed. The cell-based assay (InvivoGen) consists of Jurkat T cells that are engineered to express luciferase via T cell receptor (TCR) signalling and Raji cells engineered to express PD-L1 on the cell surface. If PD-L1 is bound to PD-1, the luciferase expression is inhibited. […] As such, luciferase activity directly correlates to the PD-1/PD-L1 interaction, measured by luminescence following luciferin addition. […]
The assay was performed following the manufacturer’s protocol. […] The plate was read using a CLARIOstar (BMG Labtech) microplate reader and used following manufacturer’s protocols, reading luminescence at a 4 s start time and 0.1 s […]

A short description of data set [4]: Thermal stability of 1 at 37 °C, analytical HPLC. The format is physicochemical. The following applies: after irradiation at 365 nm for 15 min, 1 mg/mL in IMDM with 10% FBS, Pen-Strep and Normocin, analytical HPLC every hour. How it is done:
There was concern that during the cellular assay incubation at 37 °C may result in the azobenzene modified peptide relaxing back to the trans isomer. To determine whether 1 was thermally stable to continue with cellular assays, 1 was incubated at 37 °C for 8 h after irradiation at 365 nm for 15 minutes in buffer. […] To explore the activity of 1 in a cellular context, an immune checkpoint blockade assay was performed. The cell-based assay (InvivoGen) consists of Jurkat T cells that are engineered to express luciferase via T cell receptor (TCR) signalling and Raji cells engineered to express PD-L1 on the cell surface. If PD-L1 is bound to PD-1, the luciferase expression is inhibited. If the PD-1/PD-L1 interaction is inhibited, TCR signalling causes luciferase expression. As such, luciferase activity directly correlates to the PD-1/PD-L1 interaction, measured by luminescence following luciferin addition. […]
Figure 6 a) The analytical HPLC traces of 6 reading at 214 nm top: after irradiation at 365 nm for 20 minutes showing predominantly the cis isomer (74:26) bottom: after being exposed for 20 minutes of ambient light showing predominantly the […]
This assay was purchased from CisBio and was performed following the manufacturer’s protocol. […] Samples were analysed in triplicate. […]
The emission ratio was calculated for each well was calculated with the following equation: […]

Data set [5] deals with PD-1/PD-L1. The following applies: read-out: IC50, PD-1/PD-L1 inhibition of BMS-1; cited from earlier work. An excerpt: Photo-switchable peptides that have the potential to be switched “on” and “off” through structural changes, present an opportunity for externally controlled immune checkpoint inhibitors.

T1 sequence (Q9NZQ7 19-238 limits assumed): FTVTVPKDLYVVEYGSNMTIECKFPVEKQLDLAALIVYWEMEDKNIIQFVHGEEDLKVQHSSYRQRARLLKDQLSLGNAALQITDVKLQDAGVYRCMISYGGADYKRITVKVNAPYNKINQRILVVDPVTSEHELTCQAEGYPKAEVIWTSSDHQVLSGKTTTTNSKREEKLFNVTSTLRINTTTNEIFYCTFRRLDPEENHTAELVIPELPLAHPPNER

Consider `CC(=O)N[C@@H](Cc1c[nH]c2ccccc12)C(=O)N[C@@H](Cc1c[nH]cn1)C(=O)N[C@@H](Cc1ccccc1)C(=O)N[C@@H](CO)C(=O)N[C@@H](Cc1ccc(O)cc1)C(=O)N[C@@H](CC(N)=O)C(=O)N[C@@H](Cc1c[nH]c2ccccc12)C(=O)N[C@@H](CCCNC(=N)N)C(=O)N[C@@H](Cc1c[nH]c2ccccc12)C(=O)N[C@@H](CC(C)C)C(=O)N1CCC[C@H]1C(=O)N1CCC[C@H]1C(N)=O` [CLP003, reference compound] (Ac-WHFSYNWRWLPP-NH2), for which, in data set [1], the IC50 was found to be 4.68 µM. The Kd in data set [2] is 0.117 ± 0.08 µM.
As for `CC(=O)N[C@@H](Cc1c[nH]c2ccccc12)C(=O)N[C@@H](Cc1c[nH]cn1)C(=O)N[C@@H](Cc1ccccc1)C(=O)N[C@@H](CO)C(=O)N[C@@H](Cc1ccc(O)cc1)C(=O)N[C@@H](CC(N)=O)C(=O)NCc1cccc(/N=N/c2cccc(CC(=O)N[C@@H](CCCNC(=N)N)C(=O)N[C@@H](Cc3c[nH]c4ccccc34)C(=O)N[C@@H](CC(C)C)C(=O)N3CCC[C@H]3C(=O)N3CCC[C@H]3C(N)=O)c2)c1` [compound 1] (Ac-WHFSYN[X1]RWLPP-NH2), in data set [1] (sample left in the dark (trans isomer), at up to 100 μM, detection buffer with 5% DMSO), the “Inhibition of PD-1/PD-L1 (HTRF), trans isomer” value was “no appreciable inhibition”. Besides, the EC50 in data set [3] was determined as 5.58 µM. For the same compound, the “Thermal stability at 37 °C over 8 h (degradation / isomer state)” value in data set [4] is on record as “no degradation while remaining predominantly the cis isomer; also recorded: no observable change”.
As to `CC(=O)N[C@@H](Cc1c[nH]c2ccccc12)C(=O)N[C@@H](Cc1c[nH]cn1)C(=O)N[C@@H](Cc1ccccc1)C(=O)N[C@@H](CO)C(=O)N[C@@H](Cc1ccc(O)cc1)C(=O)N[C@@H](CC(N)=O)C(=O)N[C@@H](C)C(=O)N[C@@H](CCCNC(=N)N)C(=O)N[C@@H](Cc1c[nH]c2ccccc12)C(=O)N[C@@H](CC(C)C)C(=O)N1CCC[C@H]1C(=O)N1CCC[C@H]1C(N)=O` [W7A] (Ac-WHFSYNARWLPP-NH2), in data set [1], the IC50 stood at 0.025 µM and the “Alanine scan of CLP003, inhibition of PD-1/PD-L1 (HTRF) at single concentration” value is listed as “inhibiting PD-1/PD-L1”.
On to `COc1cc(OCc2cccc(-c3ccccc3)c2C)cc(OC)c1CN1CCCC[C@H]1C(=O)O` [BMS-1, reference compound], for which the EC50 in data set [3] was 3.99 µM. Further, the IC50 in data set [5] is 0.076 µM.
Consider `CC(=O)N[C@@H](Cc1c[nH]c2ccccc12)C(=O)N[C@@H](Cc1c[nH]cn1)C(=O)N[C@@H](Cc1ccccc1)C(=O)N[C@@H](CO)C(=O)N[C@@H](C)C(=O)N[C@@H](CC(N)=O)C(=O)N[C@@H](Cc1c[nH]c2ccccc12)C(=O)N[C@@H](CCCNC(=N)N)C(=O)N[C@@H](Cc1c[nH]c2ccccc12)C(=O)N[C@@H](CC(C)C)C(=O)N1CCC[C@H]1C(=O)N1CCC[C@H]1C(N)=O` [Y5A] (Ac-WHFSANWRWLPP-NH2), for which, in data set [1], the IC50 was found to be 0.052 µM and the “Alanine scan of CLP003, inhibition of PD-1/PD-L1 (HTRF) at single concentration” value was “inhibiting PD-1/PD-L1”.

As usually defined, the Kd is the free concentration of one partner at which half of the binding sites on the other are occupied at equilibrium, for simple one-to-one binding. What is called EC50 is the concentration that produces a half-maximal response.

(Values after article PMC11293026, “Light-activated azobenzene peptide inhibitor of the PD-1/PD-L1 interaction” (Chemical Communications (Cambridge, England), 2024).)
